Measured values from patent publication US20240209028A1, “CNP COMPOUNDS” (priority 2022, published 2024).
Starred links: 1 amine or outer side, 2 acyl side, 3 side chain; linkers in the order of their positions; H or OH if unused. Positions of bridges follow the written chain, without caps; N, C: chain ends. Non-standard residues stand in square brackets, D forms with d. Residues, ends and D or L forms follow the SMILES beside them. No end group written: not given here. *: point of attachment. C18 diacid = O=C(O)CCCCCCCCCCCCCCCCC(=O)*; γGlu = O=C(O)[C@H](CCC(=O)[*:2])N[*:1]; AEEA = NCCOCCOCC(=O)O

Target: T1, human natriuretic peptide receptor 2 (hNPR2) (Homo sapiens, UniProt P20594)
T1 construct: expressed in transfected cells; host or cells: HEK293 (ATCC CRL-1573), clone 35, co-transfected with pGloSensor-42F
T1 sequence (P20594 23-1047): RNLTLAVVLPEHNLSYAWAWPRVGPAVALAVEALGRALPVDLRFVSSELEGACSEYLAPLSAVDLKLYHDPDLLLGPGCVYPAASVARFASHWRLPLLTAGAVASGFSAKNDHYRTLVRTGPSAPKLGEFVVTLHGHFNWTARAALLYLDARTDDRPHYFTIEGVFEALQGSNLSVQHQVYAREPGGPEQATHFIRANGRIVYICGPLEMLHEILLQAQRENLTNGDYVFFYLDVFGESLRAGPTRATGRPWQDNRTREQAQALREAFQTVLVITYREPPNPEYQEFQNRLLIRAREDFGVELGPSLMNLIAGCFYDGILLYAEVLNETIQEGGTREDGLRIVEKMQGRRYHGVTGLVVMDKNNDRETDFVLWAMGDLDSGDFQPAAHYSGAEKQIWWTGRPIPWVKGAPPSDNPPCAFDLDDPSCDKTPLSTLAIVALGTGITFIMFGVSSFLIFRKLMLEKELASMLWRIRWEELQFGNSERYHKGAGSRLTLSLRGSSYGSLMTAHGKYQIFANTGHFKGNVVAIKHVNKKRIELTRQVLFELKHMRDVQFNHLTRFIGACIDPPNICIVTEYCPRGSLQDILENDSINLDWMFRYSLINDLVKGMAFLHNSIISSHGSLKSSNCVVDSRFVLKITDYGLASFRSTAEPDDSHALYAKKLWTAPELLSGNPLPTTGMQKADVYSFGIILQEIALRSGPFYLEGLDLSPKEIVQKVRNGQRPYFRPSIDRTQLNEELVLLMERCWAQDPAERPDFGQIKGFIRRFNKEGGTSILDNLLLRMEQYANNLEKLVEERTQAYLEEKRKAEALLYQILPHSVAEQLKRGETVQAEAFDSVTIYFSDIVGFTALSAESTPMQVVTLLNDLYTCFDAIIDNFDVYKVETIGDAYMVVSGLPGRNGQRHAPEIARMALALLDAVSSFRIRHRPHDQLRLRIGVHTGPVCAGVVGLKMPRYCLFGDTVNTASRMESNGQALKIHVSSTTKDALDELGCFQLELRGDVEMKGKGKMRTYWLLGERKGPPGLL
Assay: In vitro hNPR2 activity assay (cGMP GloSensor reporter, HEK293)
Assay type: cell-based
Settings: for hNPR2 0% HSA. [EC50% rel CNP]: potency relative to CNP22 (0065); for EC50: 0% HSA, HEK293-hNPR2/GloSensor cells
In short: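 Potency is the EC50 from a four-parameter logistic fit, also expressed relative to the in-plate CNP22 control (×100), with at least two replicates. Compounds (ten concentrations, […], HSA-free diluent with 1% OVA, 0.01% Tween20) were incubated 30 min at 37 °C on HEK293 cells co-expressing hNPR2 and a GloSensor cGMP luciferase. Luminescence detected with Bright-Glo.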

CC[C@H](C)[C@@H]1NC(=O)[C@H](CCCNC(=N)N)NC(=O)[C@H](CC(=O)O)NC(=O)[C@H](CC(C)C)NC(=O)[C@@H]2CCCN2C(=O)[C@H](CC(C)C)NC(=O)CNC(=O)[C@H](Cc2ccccc2)NC(=O)[C@@H](NC(=O)CNC(=O)[C@H](CCC(N)=O)NC(=O)[C@H](CO)NC(=O)[C@H](CC(C)C)NC(=O)CNC(=O)[C@H](CCCCN)NC(=O)[C@H](CCCCN)NC(=O)[C@H](CCC(N)=O)NC(=O)[C@H](C)NC(=O)CNC(=O)[C@H](CCCCN)NC(=O)[C@H](Cc2ccc(O)cc2)NC(=O)COCCOCCNC(=O)COCCOCCNC(=O)COCCOCCNC(=O)COCCOCCNC(=O)[C@H](CCC(=O)O)NC(=O)[C@H](CCC(=O)O)NC(=O)[C@H](CCC(=O)O)NC(=O)CCCCCCCCCCCCCCCCC(=O)O)CSSC[C@@H](C(=O)O)NC(=O)CNC(=O)[C@H](CC(C)C)NC(=O)CNC(=O)[C@H](CO)NC(=O)[C@H](CC(C)C)NC(=O)[C@H](CO)NC(=O)CNC1=O [compound 1481] ({C18 diacid}-EEE[AEEA][AEEA][AEEA][AEEA]YKGAQKKGLSQGCFGLPLDRIGSLSGLGC-OH; disulfide 20-36)
hNPR2 0% HSA. [EC50% rel CNP]: 35.1%

CC[C@H](C)[C@@H]1NC(=O)[C@H](CCCNC(=N)N)NC(=O)[C@H](CCC(=O)O)NC(=O)[C@H](CC(C)C)NC(=O)[C@@H]2CCCN2C(=O)[C@H](CC(C)C)NC(=O)CNC(=O)[C@H](Cc2ccccc2)NC(=O)[C@@H](NC(=O)CNC(=O)[C@H](CCC(N)=O)NC(=O)[C@H](CO)NC(=O)[C@H](CO)NC(=O)CNC(=O)[C@H](CCCCN)NC(=O)[C@H](CCCCN)NC(=O)[C@H](CCC(N)=O)NC(=O)[C@H](C)NC(=O)CNC(=O)[C@@H]2CCCN2C(=O)[C@H](C)NC(=O)[C@H](CCC(N)=O)NC(=O)CNC(=O)COCCOCCNC(=O)COCCOCCNC(=O)CC[C@H](NC(=O)CCCCCCCCCCCCCCCCC(=O)O)C(=O)O)CSSC[C@@H](C(=O)O)NC(=O)CNC(=O)[C@H](CC(C)C)NC(=O)CNC(=O)[C@H](CO)NC(=O)[C@H](CC(C)C)NC(=O)[C@H](CO)NC(=O)CNC1=O [compound 1486] ({C18 diacid-γGlu-AEEA-AEEA}-GQAPGAQKKGSSQGCFGLPLERIGSLSGLGC-OH; disulfide 15-31; C-terminus assumed)
EC50: 0.14 nM
hNPR2 0% HSA. [EC50% rel CNP]: 6.0%

CC[C@H](C)[C@@H]1NC(=O)[C@H](CCCNC(=N)N)NC(=O)[C@H](CC(=O)O)NC(=O)[C@H](CC(C)C)NC(=O)[C@@H]2CCCN2C(=O)[C@H](CC(C)C)NC(=O)CNC(=O)[C@H](Cc2ccccc2)NC(=O)[C@@H](NC(=O)CNC(=O)[C@H](CCC(N)=O)NC(=O)[C@H](CO)NC(=O)[C@H](CC(C)C)NC(=O)CNC(=O)[C@H](CCCCN)NC(=O)[C@H](CCCCN)NC(=O)[C@H](CCC(N)=O)NC(=O)[C@H](C)NC(=O)CNC(=O)[C@@H]2CCCN2C(=O)[C@H](C)NC(=O)[C@H](CCC(N)=O)NC(=O)CNC(=O)[C@@H]2CCCN2C(=O)[C@H](C)NC(=O)[C@H](CCC(N)=O)NC(=O)CNC(=O)[C@@H]2CCCN2C(=O)[C@H](C)NC(=O)[C@H](CCC(N)=O)NC(=O)CNC(=O)COCCOCCNC(=O)COCCOCCNC(=O)CC[C@H](NC(=O)CCCCCCCCCCCCCCCCC(=O)O)C(=O)O)CSSC[C@@H](C(=O)O)NC(=O)CNC(=O)[C@H](CC(C)C)NC(=O)CNC(=O)[C@H](CO)NC(=O)[C@H](CC(C)C)NC(=O)[C@H](CO)NC(=O)CNC1=O [compound 1487] ({C18 diacid-γGlu-AEEA-AEEA}-GQAPGQAPGQAPGAQKKGLSQGCFGLPLDRIGSLSGLGC-OH; disulfide 23-39)
hNPR2 0% HSA. [EC50% rel CNP]: 22.0%

CC[C@H](C)[C@@H]1NC(=O)[C@H](CCCNC(=N)N)NC(=O)[C@H](CC(=O)O)NC(=O)[C@H](CC(C)C)NC(=O)[C@@H]2CCCN2C(=O)[C@H](CC(C)C)NC(=O)CNC(=O)[C@H](Cc2ccccc2)NC(=O)[C@@H](NC(=O)CNC(=O)[C@H](CCC(N)=O)NC(=O)[C@H](CO)NC(=O)[C@H](CC(C)C)NC(=O)CNC(=O)[C@H](CCCCN)NC(=O)[C@H](CCCCN)NC(=O)[C@H](CCC(N)=O)NC(=O)[C@H](C)NC(=O)CNC(=O)[C@@H]2CCCN2C(=O)[C@H](C)NC(=O)[C@H](CCC(N)=O)NC(=O)CNC(=O)[C@@H]2CCCN2C(=O)[C@H](C)NC(=O)[C@H](CCC(N)=O)NC(=O)CNC(=O)[C@@H]2CCCN2C(=O)[C@H](C)NC(=O)[C@H](CCC(N)=O)NC(=O)CNC(=O)CC[C@H](NC(=O)CCCCCCCCCCCCCCCCC(=O)O)C(=O)O)CSSC[C@@H](C(=O)O)NC(=O)CNC(=O)[C@H](CC(C)C)NC(=O)CNC(=O)[C@H](CO)NC(=O)[C@H](CC(C)C)NC(=O)[C@H](CO)NC(=O)CNC1=O [compound 1488] ({C18 diacid-γGlu}-GQAPGQAPGQAPGAQKKGLSQGCFGLPLDRIGSLSGLGC-OH; disulfide 23-39)
hNPR2 0% HSA. [EC50% rel CNP]: 29.3%

CC[C@H](C)[C@@H]1NC(=O)[C@H](CCCNC(=N)N)NC(=O)[C@H](CCC(=O)O)NC(=O)[C@H](CC(C)C)NC(=O)[C@@H]2CCCN2C(=O)[C@H](CC(C)C)NC(=O)CNC(=O)[C@H](Cc2ccccc2)NC(=O)[C@@H](NC(=O)CNC(=O)[C@H](CCC(N)=O)NC(=O)[C@H](CO)NC(=O)[C@H](CC(C)C)NC(=O)CNC(=O)[C@H](CCCCN)NC(=O)[C@H](CCCCN)NC(=O)[C@H](CCC(N)=O)NC(=O)[C@H](C)NC(=O)CNC(=O)[C@H](CCCCN)NC(=O)[C@H](Cc2ccc(O)cc2)NC(=O)COCCOCCNC(=O)COCCOCCNC(=O)COCCOCCNC(=O)COCCOCCNC(=O)CC[C@H](NC(=O)CC[C@H](NC(=O)CCCCCCCCCCCCCCCCC(=O)O)C(=O)O)C(=O)O)CSSC[C@@H](C(=O)O)NC(=O)CNC(=O)[C@H](CC(C)C)NC(=O)CNC(=O)[C@H](CO)NC(=O)[C@H](CC(C)C)NC(=O)[C@H](CO)NC(=O)CNC1=O [compound 1493] ({C18 diacid-γGlu-γGlu-AEEA-AEEA-AEEA-AEEA}-YKGAQKKGLSQGCFGLPLERIGSLSGLGC-OH; disulfide 13-29; C-terminus assumed)
EC50: 0.8 nM
hNPR2 0% HSA. [EC50% rel CNP]: 11.5%

CC[C@H](C)[C@@H]1NC(=O)[C@H](CCCNC(=N)N)NC(=O)[C@H](CC(=O)O)NC(=O)[C@H](CC(C)C)NC(=O)[C@H](CCCCN)NC(=O)[C@H](CC(C)C)NC(=O)CNC(=O)[C@H](Cc2ccccc2)NC(=O)[C@@H](NC(=O)CNC(=O)[C@H](CCCCN)NC(=O)[C@H](CO)NC(=O)[C@H](CC(C)C)NC(=O)CNC(=O)[C@H](CCCCN)NC(=O)[C@H](CCCCN)NC(=O)[C@H](CC(N)=O)NC(=O)[C@H](C)NC(=O)CNC(=O)[C@H](CCCCN)NC(=O)[C@H](Cc2ccc(O)cc2)NC(=O)[C@H](CCCCN)NC(=O)[C@H](CCCNC(=N)N)NC(=O)[C@H](C)NC(=O)[C@H](CC(N)=O)NC(=O)[C@@H]2CCCN2C(=O)[C@H](Cc2c[nH]cn2)NC(=O)[C@H](CCC(=O)O)NC(=O)[C@@H](N)CCC(N)=O)CSSC[C@@H](C(=O)O)NC(=O)CNC(=O)[C@H](CC(C)C)NC(=O)CNC(=O)[C@H](CO)NC(=O)[C@H](CCSC)NC(=O)[C@H](CO)NC(=O)CNC1=O [compound 1510]
EC50: 0.05 nM
hNPR2 0% HSA. [EC50% rel CNP]: 139.2%

{C18 diacid-γGlu-AEEA-AEEA}-GQAPGQAPGQAPGQAPGQAPGLSKGCFGLKLDRIGSMSGLGC-OH (disulfide 26-42) [compound 0230]
hNPR2 0% HSA. [EC50% rel CNP]: 0.4%

{C18 diacid}-EEEEE[AEEA][AEEA][AEEA][AEEA]ARKYKGAQKKGLSQGCFGLPLDRIGSLSGLGC (disulfide 25-41) [compound 1475]
hNPR2 0% HSA. [EC50% rel CNP]: 46.5%

{C18 diacid}-EGEGEGEGE[AEEA][AEEA]ARKYKGAQKKGLSQGCFGLPLDRIGSLSGLGC-OH (disulfide 27-43) [compound 1476]
hNPR2 0% HSA. [EC50% rel CNP]: 48.4%
